Like-named read-outs stand apart in the source and are kept apart here.
How the values were obtained:
MOLM-13 cell = test: MTS cell viability assay; format: cell-based; conditions: Homo sapiens, MOLM-13, 72 h, table of representative values
Source text: The leukemias cell lines MOLM-13, MV4:11, RSV4:11, MOLT-4, U937, and K562 were purchased from American Type Culture Collection (ATCC, Manassas, Va., USA). The non-leukemias cell lines HCC827, H1975, NCIH460, A431, Huh7, SF268, MCF-7, HCT-116, and normal human fetal fibroblast cell line Detriot 551 were purchased from American Type Culture Collection (ATCC, Manassas, Va., USA). All leukemias cell lines and HCC827, H1975, NCIH460, A431 were maintained in RPMI 1640 medium supplemented with 10% fetal bovine serum (FBS), 10 U/ml penicillin, and 10 µg/ml streptomycin at 37° C. and 5% CO2. The cell lines Huh7, SF268, MCF-7, and Detroit 551 were cultured in DMEM medium supplemented with 10% FBS, 0.01% nonessential amino acids, 10 U/ml penicillin, and 10 µg/ml streptomycin. HCT-116 were cultured in McCoy's 5A medium supplemented with 10% FBS, 0.01% nonessential amino acids, 10 U/ml penicillin, and 10 µg/ml streptomycin. To determine cell viability after drug treatment, assays were performed by seeding 10,000 cells (leukemias cell lines) or 2,500 cells (non-leukemias cell lines) per well in a 96-well culture plate. After 16 h, cells were then treated with vehicle or various concentrations of compound in medium for 72 h. Viable cells were quantitated using the MTS method (Promega, Madison, Wis., USA) according to the manufacturer's recommended protocol. The results were determined by measuring the absorbance at 490 nm using a plate reader (Victor2; PerkinElmer, Shelton, Conn., USA).

wt-FLT3 = molecular target: T1, wt-FLT3 (Homo sapiens, UniProt P36888); test: FLT3 WT Kinase-Glo assay; format: biochemical
T1 construct: FLT3 kinase catalytic domain (residues Y567˜S993); made in house; host or cells: Sf9 insect cells (baculovirus, pBac-PAK8-GST-FLT3-KD plasmid)
T1 sequence (P36888 567-993): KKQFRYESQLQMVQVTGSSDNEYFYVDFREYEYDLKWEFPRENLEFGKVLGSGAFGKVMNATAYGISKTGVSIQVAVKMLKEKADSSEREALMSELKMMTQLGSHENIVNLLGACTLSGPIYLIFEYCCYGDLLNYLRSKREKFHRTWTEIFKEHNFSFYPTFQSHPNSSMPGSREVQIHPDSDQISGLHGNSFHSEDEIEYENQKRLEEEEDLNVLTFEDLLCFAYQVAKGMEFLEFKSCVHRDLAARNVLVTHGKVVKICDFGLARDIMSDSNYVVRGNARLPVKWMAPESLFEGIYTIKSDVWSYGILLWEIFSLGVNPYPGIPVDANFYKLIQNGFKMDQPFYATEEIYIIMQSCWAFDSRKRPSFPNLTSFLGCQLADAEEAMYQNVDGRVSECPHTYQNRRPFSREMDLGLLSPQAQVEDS
Outline: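 GST-tagged wild-type FLT3 kinase domain (residues Y567–S993), expressed in Sf9 cells, was used. After the kinase reaction, remaining ATP was detected by Kinase-Glo Plus luminescence following 20 min at 25 °C.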

VEGFR2 = molecular target: T2, VEGFR2 (Homo sapiens, UniProt P35968); test: VEGFR2 Kinase-Glo kinase assay; format: biochemical
T2 construct: GST-VEGFR2 (residues V789-V1356); GST (N); made in house; host or cells: Sf9 insect cells

VEGFR1 = molecular target: T3, VEGFR1 (Homo sapiens, UniProt P17948); test: VEGFR1 Kinase-Glo kinase assay; format: biochemical
T3 construct: GST-VEGFR1 (residues R781-I1338); GST (N); made in house; host or cells: Sf9 insect cells
T3 sequence (P17948 781-1338): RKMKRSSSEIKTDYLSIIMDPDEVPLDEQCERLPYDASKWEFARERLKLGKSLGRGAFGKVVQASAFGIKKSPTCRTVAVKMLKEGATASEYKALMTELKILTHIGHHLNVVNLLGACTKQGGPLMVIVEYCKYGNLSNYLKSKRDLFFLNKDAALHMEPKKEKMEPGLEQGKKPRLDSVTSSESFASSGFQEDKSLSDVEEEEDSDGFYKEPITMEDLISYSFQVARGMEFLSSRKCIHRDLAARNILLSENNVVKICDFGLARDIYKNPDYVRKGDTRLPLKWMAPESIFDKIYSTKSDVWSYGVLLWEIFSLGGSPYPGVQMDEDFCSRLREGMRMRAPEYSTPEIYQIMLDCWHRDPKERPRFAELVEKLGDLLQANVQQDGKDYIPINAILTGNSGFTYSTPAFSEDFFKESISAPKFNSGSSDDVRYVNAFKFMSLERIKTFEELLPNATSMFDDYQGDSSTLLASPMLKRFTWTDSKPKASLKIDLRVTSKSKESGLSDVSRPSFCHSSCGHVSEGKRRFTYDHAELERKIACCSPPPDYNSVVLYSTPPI

[1] = FLT3 WT Kinase-Glo, 1 μM ATP, read-out: IC50
[2] = table of representative values, read-out: IC50 (nM) wt-FLT3
[3] = VEGFR2 assay, 1 μM ATP, bound in μM, read-out: IC50
[4] = VEGFR2 assay, 1 μM ATP, ranges in nM, read-out: IC50
[5] = table of representative values, read-out: IC50 (nM) VEGFR2
[6] = VEGFR1 assay, 1 μM ATP, bound in nM, read-out: IC50
[7] = VEGFR1 assay, 1 μM ATP, bound in μM, read-out: IC50
[8] = table of representative values, read-out: IC50 (nM) VEGFR1

T2 sequence (P35968 789-1356): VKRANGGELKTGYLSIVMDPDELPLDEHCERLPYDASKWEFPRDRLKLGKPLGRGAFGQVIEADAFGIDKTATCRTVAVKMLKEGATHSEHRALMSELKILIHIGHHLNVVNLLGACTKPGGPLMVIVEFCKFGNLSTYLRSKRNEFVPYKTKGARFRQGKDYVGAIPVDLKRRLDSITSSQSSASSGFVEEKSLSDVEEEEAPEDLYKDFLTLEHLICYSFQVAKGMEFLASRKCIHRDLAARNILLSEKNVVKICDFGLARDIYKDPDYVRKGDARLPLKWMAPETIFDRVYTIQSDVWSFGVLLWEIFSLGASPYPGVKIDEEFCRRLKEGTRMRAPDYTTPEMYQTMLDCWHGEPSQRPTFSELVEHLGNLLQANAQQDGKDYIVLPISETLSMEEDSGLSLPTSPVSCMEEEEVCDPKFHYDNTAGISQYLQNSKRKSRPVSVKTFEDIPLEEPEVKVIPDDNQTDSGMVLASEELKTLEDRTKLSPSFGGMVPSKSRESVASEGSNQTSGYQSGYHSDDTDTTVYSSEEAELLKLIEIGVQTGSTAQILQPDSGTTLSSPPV

For `CCc1cc(NC(=O)Nc2ccc(-c3cnc(Nc4cc(N5CCN(CC)CC5)nc(C)n4)s3)cc2)no1` [Compound 112, N-(5-ethyl-3-isoxazolyl)-N′-[4-(2-[6-(4-ethylpiperazino)-2-methyl-4-pyrimidinyl]amino-1,3-thiazol-5-yl)phenyl]urea], which GI50 (MOLM-13 cell) is on record?
The GI50 was 2 nM.

And the IC50 (wt-FLT3; [1])?
Its IC50 is 1 to 20 nM.

And the IC50 (wt-FLT3; [2])?
The IC50 was 15 nM.

What about the IC50 (VEGFR2; [3]) of the same molecule?
Its IC50 is < 1 µM.

And the IC50 (VEGFR2; [4])?
The IC50 was 0.001 to 0.055 µM.

And the IC50 (VEGFR2; [5])?
The IC50 was 0.025 µM.

And the IC50 (VEGFR1; [6])?
Its IC50 is < 100 nM.

What about the IC50 (VEGFR1; [7]) of the same molecule?
The IC50 was < 1000 nM.

What about the IC50 (VEGFR1; [8]) of the same molecule?
The IC50 was 20 nM.

Which GI50 (MOLM-13 cell) does the source give for `CCc1cc(NC(=O)Nc2ccc(-c3cnc(Nc4cc(N5CCC(N)C5)nc(C)n4)s3)cc2)no1` (stereo not drawn) [Compound 119, N-[4-(2-[6-(3-aminotetrahydro-1H-1-pyrrolyl)-2-methyl-4-pyrimidinyl]amino-1,3-thiazol-5-yl)phenyl]N′-(5-ethyl-3-isoxazolyl)urea] here?
Its GI50 is 3 nM.

What about the IC50 (wt-FLT3; [1]) of the same molecule?
The IC50 was 1 to 20 nM.

What about the IC50 (wt-FLT3; [2]) of the same molecule?
Its IC50 is 14 nM.

What about the IC50 (VEGFR2; [3]) of the same molecule?
Its IC50 is < 1 µM.

And the IC50 (VEGFR2; [4])?
Its IC50 is 0.001 to 0.055 µM.

And the IC50 (VEGFR2; [5])?
Its IC50 is 0.007 µM.

And the IC50 (VEGFR1; [6])?
The IC50 was < 100 nM.

And the IC50 (VEGFR1; [7])?
Its IC50 is < 1000 nM.

What about the IC50 (VEGFR1; [8]) of the same molecule?
Its IC50 is 63 nM.

— patent US9255072B2, “Pyrazole compounds and thiazole compounds as protein kinases inhibitors” (National Health Rsearch Institutes, priority 2011, dated 2016)
